The values below come from the OligoGym collection.

The target in this data set is SOD1. The conditions noted are these: ASO.

Values joined by “and” are separate entries in the source; they are usually repeats but may differ in a detail not shown here. Equal entries are not always repeated. After the bases stand the sugars from the 5' end (letter, count) and the backbone: PS all phosphorothioate, else s phosphorothioate and o phosphodiester by linkage. Methylation of C is not given here. e = 2'-O-(2-methoxyethyl) (MOE); k = constrained ethyl (cEt); d = 2'-deoxy (DNA)

As for “AATGTTTATTGGGCGAT (sugars e2 k2 d9 k2 e2, PS)”, the target mRNA inhibition (HepG2, 4 µM) was found to be 64%.
For the sequence “ACAGTGTTTAATGTTTA (sugars e2 k2 d8 k2 e3, linkages s1 o2 s9 o2 s2)”, the target mRNA inhibition (A431, 0.12 µM) worked out at 17%; the target mRNA inhibition (A431, 0.6 µM) is 8%; the target mRNA inhibition (A431, 3 µM) amounted to 26%; the target mRNA inhibition (A431, 15 µM) was 37%; the target mRNA inhibition (HepG2, 0.222 µM) was found to be 61%; the target mRNA inhibition (HepG2, 0.667 µM) came out at 73%. Besides, the target mRNA inhibition came out at 91% (HepG2, 2 µM) and 88% (HepG2, 6 µM).
“CATTTCCACCTTTGCCC (sugars e3 k2 d7 k2 e3, PS)”: the target mRNA inhibition (HepG2, 3 µM) is 73%.
“CTTTTAATAGCCTCATA (sugars e2 k2 d9 k2 e2, PS)” showed a target mRNA inhibition (HepG2, 5 µM) of 34%.
As to “CTCCGCGCCTCGCCCACTCT (sugars e5 d10 e5, PS)”, the target mRNA inhibition (HepG2, 4 µM) worked out at 40%.
As for “CTCATAATAAGTGCCAT (sugars e2 k2 d8 k2 e3, PS)”, where the note is “HepG2, 5 µM”, the target mRNA inhibition came to 30%.
For “GATTTAAGTCTGGCAAA (sugars e2 k2 d9 k2 e2, PS)”, the target mRNA inhibition (HepG2, 5 µM) stood at 35%.
Regarding “AGGACCTGCACTGGTAC (sugars e3 k2 d7 k2 e3, PS)”, the target mRNA inhibition (HepG2, 3 µM) is 4%.
For “CAGCTAGCAGGATAACA (sugars e2 k2 d9 k2 e2, PS)”, where the note is “HepG2, 4 µM”, the target mRNA inhibition was found to be 61%.
With “TTTTTCATGGACCACCA (sugars e3 k2 d7 k2 e3, PS)”, the target mRNA inhibition (HepG2, 3 µM) is 76%.
“ATAGCCTCATAATAAGT (sugars e2 k2 d8 k2 e3, PS)” returned a target mRNA inhibition (HepG2, 5 µM) of 20%.
Consider “TGATTTAAGTCTGGCAA (sugars e2 k2 d9 k2 e2, PS)”, for which, under “HepG2, 5 µM”, the target mRNA inhibition came to 52%.
Consider “TTAATGTTTATCAGGAT (sugars e4 d8 k2 e3, linkages s1 o2 s9 o2 s2)”, for which the target mRNA inhibition came out at 26% (A431, 0.062 µM); 30% (A431, 0.185 µM); 58% (A431, 0.556 µM); 50% (A431, 0.6 µM); 64% (A431, 1.667 µM); 68% (A431, 5 µM). The sequence also returned a target mRNA inhibition (A431, 15 µM) of 78%; a target mRNA inhibition (SH-SY5Y, 0.062 µM) of 11%; a target mRNA inhibition (SH-SY5Y, 0.185 µM) of 44%; a target mRNA inhibition (SH-SY5Y, 0.556 µM) of 53%; a target mRNA inhibition (SH-SY5Y, 1.667 µM) of 75%; a target mRNA inhibition (SH-SY5Y, 5 µM) of 77%. For the setting “SH-SY5Y, 15 µM”, this sequence had a target mRNA inhibition of 93%.
Take “GCCCAAGTCTCCAACATGCC (sugars e5 d10 e5, PS)”: the target mRNA inhibition (HepG2, 5 µM) is 61% and 53%.
Take “CATAATAAGTGCCATAC (sugars e2 k2 d9 k2 e2, PS)”: under “HepG2, 5 µM”, the target mRNA inhibition turned out to be 34%.
The sequence “AATGTTTATTGGGCGAT (sugars e2 k2 d8 k2 e3, PS)” registered a target mRNA inhibition (HepG2, 4 µM) of 61%.
Take “TCTGAAAAAGTCACACAATT (sugars e5 d10 e5, PS)”: the target mRNA inhibition (HepG2, 5 µM) stood at 5%.
Take “GCCACGCCGAGGTCCTGGTT (sugars e5 d10 e5, PS)”: the target mRNA inhibition (HepG2, 4 µM) stood at 38%.
For the setting “HepG2, 4 µM”, “GCTAGCAGGATAACAGA (sugars e2 k2 d9 k2 e2, PS)” showed a target mRNA inhibition of 43%.
For “TGCTCGAAATTGATGATGCC (sugars e5 d10 e5, PS)”, the target mRNA inhibition (HepG2, 4 µM) came to 20%.
For the sequence “TTTCTGGATAGAGGATTAAA (sugars e5 d10 e5, PS)”, the target mRNA inhibition (HepG2, 5 µM) is 6% and 14%.
“ATACAAATCTTCCAAGT (sugars e3 k2 d7 k2 e3, PS)” showed a target mRNA inhibition (HepG2, 3 µM) of 15%.
In turn, “GTCTCCTGAGAGTGAGATCA (sugars e5 d10 e5, PS)” yielded a target mRNA inhibition (HepG2, 5 µM) of 23%.
In the case of “TTCTACAGCTAGCAGGA (sugars e2 k2 d9 k2 e2, PS)”, the target mRNA inhibition was 10% (HepG2, 0.1875 µM); 57% (HepG2, 0.75 µM); 84% (HepG2, 3 µM); 79% (HepG2, 4 µM); 94% (HepG2, 12 µM).
Regarding “TACCCATCTGTGATTTA (sugars e2 k2 d9 k2 e2, PS)”, the target mRNA inhibition (HepG2, 5 µM) stood at 45%.
For “CTCTCTTCATCCTTTGG (sugars e3 k2 d7 k2 e3, PS)”, the target mRNA inhibition (HepG2, 3 µM) was 2%.
With “TCCCCACACCTTCACT (sugars kekeddddddddekek, linkages s1 o3 s8 o1 s2)”, the target mRNA inhibition reads like this: (A431, 0.12 µM) 3%; (A431, 0.6 µM) 44%; (A431, 3 µM) 2%; (A431, 15 µM) 8%; (HepG2, 0.222 µM) 19%; (HepG2, 0.667 µM) 9%. Besides, the target mRNA inhibition amounted to 31% (HepG2, 2 µM) and 61% (HepG2, 6 µM).
The sequence “AATTACACCACAAGCCA (sugars e2 k2 d9 k2 e2, PS)” showed a target mRNA inhibition (HepG2, 4 µM) of 56%.
Sequence “CACTACAGGTACTTTAA (sugars e2 k2 d9 k2 e2, PS)” yielded a target mRNA inhibition (HepG2, 5 µM) of 38%.
Consider “GAGGACTGCAACGGAAACCC (sugars e5 d10 e5, PS)”, for which the target mRNA inhibition (HepG2, 4 µM) amounted to 24%.
For the sequence “TCTGTGATTTAAGTCTG (sugars e2 k2 d8 k2 e3, PS)”, the target mRNA inhibition (HepG2, 5 µM) was 49%.
Still for that read-out and setting: then “ACCACAAGCCAAACGACTTC (sugars e5 d10 e5, PS)”, with 28%.
As to “TTCACTGGTCCATTACT (sugars e3 k2 d7 k2 e3, PS)”, the target mRNA inhibition (HepG2, 3 µM) amounted to 14%.
“TTTCTACAGCTAGCAGG (sugars e3 k2 d7 k2 e3, PS)” yielded a target mRNA inhibition (HepG2, 3 µM) of 38%.
The sequence “CACAGGCTTGAATGACA (sugars e2 k2 d9 k2 e2, PS)” registered a target mRNA inhibition (HepG2, 5 µM) of 47%.
Where the note is “HepG2, 4 µM”, “GGGCCTCAGACTACATC (sugars e2 k2 d9 k2 e2, PS)” came in with a target mRNA inhibition of 58%.
As to “GACTACTTTATAGGCCAGAC (sugars e5 d10 e5, PS)”, the target mRNA inhibition was 64% and 74% (HepG2, 4 µM); 80% (HepG2, 12 µM).
The sequence “ATAAAACTATACAAATC (sugars e3 k2 d7 k2 e3, PS)” registered a target mRNA inhibition (HepG2, 3 µM) of 14%.
With “CCTTTAATGCTTCCCCACAC (sugars e5 d10 e5, PS)”, the target mRNA inhibition (HepG2, 4 µM) is 1%.
Sequence “TAATAAGTGCCATACAG (sugars e2 k2 d9 k2 e2, PS)” came in with a target mRNA inhibition (HepG2, 5 µM) of 30%.
In the case of “TGTTTAATGTTTATCAGG (sugars e5 d8 e5, linkages s1 o3 s9 o2 s2)”, the target mRNA inhibition (A431, 0.12 µM) is 6%; the target mRNA inhibition (A431, 0.6 µM) was found to be 26%; the target mRNA inhibition (A431, 3 µM) was determined as 29%; the target mRNA inhibition (A431, 15 µM) amounted to 33%; the target mRNA inhibition (HepG2, 0.222 µM) turned out to be 14%; the target mRNA inhibition (HepG2, 0.667 µM) was 39%. The target mRNA inhibition is, setting by setting: (HepG2, 2 µM) 59%; (HepG2, 6 µM) 77%.
The sequence “TTATTCACAGGCTTGAA (sugars e3 k2 d7 k2 e3, PS)” came in with a target mRNA inhibition (HepG2, 3 µM) of 10%.
Same read-out and setting: then “AGTCATCTGCTTTTTCA (sugars e3 k2 d7 k2 e3, PS)”, with 76%.
In the case of “GGATACATTTCTACAGC (sugars e5 d8 k2 e2, linkages s1 o3 s9 o1 s2)”, the target mRNA inhibition amounted to 2% (A431, 0.062 µM); 4% (A431, 0.185 µM); 15% (A431, 0.556 µM); 19% (A431, 1.667 µM); 37% (A431, 5 µM); 44% (A431, 15 µM). Moreover, the target mRNA inhibition is, setting by setting: (SH-SY5Y, 0.062 µM) 0%; (SH-SY5Y, 0.185 µM) 0%; (SH-SY5Y, 0.556 µM) 12%; (SH-SY5Y, 1.667 µM) 30%; (SH-SY5Y, 5 µM) 56%; (SH-SY5Y, 15 µM) 68%.
